Blank lines part the entries; values can stand above or below the compound they belong to.
What was measured:
[1] = target: Receptor-type tyrosine-protein kinase FLT3 (Homo sapiens) (UniProt P36888); assay: Selectivity interaction (Millipore kinase profiler) EUB0000124b FLT3; details: at 10 µM
[2] = target: T1, Serine/threonine-protein kinase Sgk3 (Homo sapiens) (UniProt Q96BR1); assay: Selectivity interaction (KinomeScan (DiscoverX)) EUB0001049a SGK3; details: at 1 µM
T1 sequence (whole entry): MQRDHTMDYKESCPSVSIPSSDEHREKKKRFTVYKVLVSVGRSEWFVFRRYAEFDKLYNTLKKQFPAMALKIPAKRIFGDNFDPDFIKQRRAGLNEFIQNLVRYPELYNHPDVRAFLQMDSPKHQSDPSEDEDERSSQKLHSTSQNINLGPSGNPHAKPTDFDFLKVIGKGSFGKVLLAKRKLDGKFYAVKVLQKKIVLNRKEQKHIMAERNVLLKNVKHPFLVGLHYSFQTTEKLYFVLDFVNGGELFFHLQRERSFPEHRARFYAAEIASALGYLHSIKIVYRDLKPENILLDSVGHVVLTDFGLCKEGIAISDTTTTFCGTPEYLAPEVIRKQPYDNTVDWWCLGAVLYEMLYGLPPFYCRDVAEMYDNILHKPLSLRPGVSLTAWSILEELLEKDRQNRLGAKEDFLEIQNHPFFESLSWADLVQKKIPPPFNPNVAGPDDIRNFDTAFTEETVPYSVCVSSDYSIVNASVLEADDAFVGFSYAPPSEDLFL

[3] = target: Serine/threonine-protein kinase MRCK beta (Homo sapiens) (UniProt Q9Y5S2); assay: Selectivity interaction (Ambit KINOMEscan and KiNATiv profiling in Jurkat cells) EUB0000090b CDC42BPB; type: cell-based; details: at 1 µM
[4] = target: T2, Dual specificity protein kinase TTK (Homo sapiens) (UniProt P33981); assay: Selectivity interaction (Kinase panel (Invitrogen)) EUB0000639a TTK; details: at 200 nM
T2 sequence (whole entry): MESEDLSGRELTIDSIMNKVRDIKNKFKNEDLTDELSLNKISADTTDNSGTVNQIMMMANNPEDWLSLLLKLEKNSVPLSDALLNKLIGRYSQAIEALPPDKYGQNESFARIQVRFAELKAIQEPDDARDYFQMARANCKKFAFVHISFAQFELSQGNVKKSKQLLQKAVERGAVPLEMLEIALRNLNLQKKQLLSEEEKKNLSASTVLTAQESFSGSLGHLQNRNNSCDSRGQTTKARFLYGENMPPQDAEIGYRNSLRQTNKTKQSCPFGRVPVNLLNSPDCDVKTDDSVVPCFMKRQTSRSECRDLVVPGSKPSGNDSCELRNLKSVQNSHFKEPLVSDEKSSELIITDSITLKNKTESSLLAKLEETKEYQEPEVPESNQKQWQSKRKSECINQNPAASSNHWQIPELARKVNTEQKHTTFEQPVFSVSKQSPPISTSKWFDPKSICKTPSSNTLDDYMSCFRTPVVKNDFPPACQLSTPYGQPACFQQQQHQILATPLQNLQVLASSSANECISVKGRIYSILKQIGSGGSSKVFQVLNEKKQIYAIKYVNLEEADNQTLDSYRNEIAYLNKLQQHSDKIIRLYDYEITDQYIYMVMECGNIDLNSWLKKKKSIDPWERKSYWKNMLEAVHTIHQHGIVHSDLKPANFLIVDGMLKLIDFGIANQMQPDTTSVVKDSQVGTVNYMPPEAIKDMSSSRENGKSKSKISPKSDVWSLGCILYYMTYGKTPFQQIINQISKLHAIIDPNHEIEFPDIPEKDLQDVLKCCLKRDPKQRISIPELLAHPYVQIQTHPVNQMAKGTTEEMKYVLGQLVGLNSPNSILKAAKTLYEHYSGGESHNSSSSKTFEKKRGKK

[5] = target: Sodium-dependent noradrenaline transporter (Homo sapiens, UniProt P23975); assay: Selectivity interaction (GPCR panel (PDSP screen)) EUB0001079a SLC6A2; details: at 10 µM
[6] = target: Phosphatidylinositol 3-kinase catalytic subunit type 3 (Homo sapiens, UniProt Q8NEB9); assay: Selectivity interaction (KinomeScan (DiscoverX)) EUB0001079a PIK3C3; details: at 1 µM
[7] = target: Cyclin-dependent kinase 7/ cyclin H (Homo sapiens) (UniProt P51946+P50613); assay: Selectivity interaction (Upstate Kinase Profiler service (Millipore)) EUB0000056c CDK7; type: protein-complex assay; details: at 1 µM
[8] = target: T3, Ephrin type-B receptor 1 (Homo sapiens) (UniProt P54762); assay: Selectivity interaction (KinomeScan (DiscoverX)) EUB0000045b EPHB1
T3 sequence (whole entry): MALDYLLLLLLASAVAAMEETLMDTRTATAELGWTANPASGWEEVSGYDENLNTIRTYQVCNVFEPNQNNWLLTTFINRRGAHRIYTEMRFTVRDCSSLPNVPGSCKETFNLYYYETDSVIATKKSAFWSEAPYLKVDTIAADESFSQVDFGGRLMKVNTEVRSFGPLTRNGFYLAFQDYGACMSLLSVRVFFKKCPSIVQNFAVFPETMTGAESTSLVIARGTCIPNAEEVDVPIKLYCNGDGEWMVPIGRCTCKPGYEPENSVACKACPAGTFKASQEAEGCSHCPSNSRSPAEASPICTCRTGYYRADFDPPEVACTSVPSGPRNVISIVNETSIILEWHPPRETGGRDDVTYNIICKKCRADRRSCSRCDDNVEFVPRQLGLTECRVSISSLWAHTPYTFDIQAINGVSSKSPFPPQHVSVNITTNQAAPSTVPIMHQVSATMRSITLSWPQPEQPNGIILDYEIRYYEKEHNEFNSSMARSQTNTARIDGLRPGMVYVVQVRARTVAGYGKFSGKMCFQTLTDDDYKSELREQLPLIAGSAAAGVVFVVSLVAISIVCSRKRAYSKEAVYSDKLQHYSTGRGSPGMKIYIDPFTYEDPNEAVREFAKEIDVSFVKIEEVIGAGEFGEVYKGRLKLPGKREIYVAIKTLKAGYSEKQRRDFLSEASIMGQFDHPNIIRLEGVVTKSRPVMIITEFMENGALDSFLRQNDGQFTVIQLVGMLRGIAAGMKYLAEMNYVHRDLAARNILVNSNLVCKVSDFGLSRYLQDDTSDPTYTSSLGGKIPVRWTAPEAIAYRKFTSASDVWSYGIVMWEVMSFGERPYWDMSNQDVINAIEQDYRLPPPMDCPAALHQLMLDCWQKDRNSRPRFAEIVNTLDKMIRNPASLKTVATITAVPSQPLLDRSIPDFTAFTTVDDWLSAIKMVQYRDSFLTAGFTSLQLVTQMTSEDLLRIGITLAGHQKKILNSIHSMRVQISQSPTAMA

[9] = target: RAC-gamma serine/threonine-protein kinase (Homo sapiens, UniProt Q9Y243); assay: Selectivity interaction (KinomeScan (DiscoverX)) EUB0000618a AKT3; details: at 10 µM
[10] = target: Serine/threonine-protein kinase WNK1 (Homo sapiens) (UniProt Q9H4A3); assay: Selectivity interaction (Kinase panel (DSF assay)) EUB0001559a WNK1

Chain of RAC-gamma serine/threonine-protein kinase (Q9Y243 whole entry): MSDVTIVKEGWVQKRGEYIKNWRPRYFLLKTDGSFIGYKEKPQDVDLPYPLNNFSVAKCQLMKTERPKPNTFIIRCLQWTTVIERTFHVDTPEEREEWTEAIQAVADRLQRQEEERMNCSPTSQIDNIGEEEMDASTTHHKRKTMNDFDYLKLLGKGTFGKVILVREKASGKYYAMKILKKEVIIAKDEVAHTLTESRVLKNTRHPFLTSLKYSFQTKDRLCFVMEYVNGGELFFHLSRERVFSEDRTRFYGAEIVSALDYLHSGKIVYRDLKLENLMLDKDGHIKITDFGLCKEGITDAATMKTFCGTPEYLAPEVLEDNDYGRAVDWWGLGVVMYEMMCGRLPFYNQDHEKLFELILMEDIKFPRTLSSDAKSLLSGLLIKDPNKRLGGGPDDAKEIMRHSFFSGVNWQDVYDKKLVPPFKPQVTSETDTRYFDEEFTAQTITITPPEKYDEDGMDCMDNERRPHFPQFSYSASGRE
Chain of Serine/threonine-protein kinase MRCK beta (Homo sapiens) (Q9Y5S2 whole entry): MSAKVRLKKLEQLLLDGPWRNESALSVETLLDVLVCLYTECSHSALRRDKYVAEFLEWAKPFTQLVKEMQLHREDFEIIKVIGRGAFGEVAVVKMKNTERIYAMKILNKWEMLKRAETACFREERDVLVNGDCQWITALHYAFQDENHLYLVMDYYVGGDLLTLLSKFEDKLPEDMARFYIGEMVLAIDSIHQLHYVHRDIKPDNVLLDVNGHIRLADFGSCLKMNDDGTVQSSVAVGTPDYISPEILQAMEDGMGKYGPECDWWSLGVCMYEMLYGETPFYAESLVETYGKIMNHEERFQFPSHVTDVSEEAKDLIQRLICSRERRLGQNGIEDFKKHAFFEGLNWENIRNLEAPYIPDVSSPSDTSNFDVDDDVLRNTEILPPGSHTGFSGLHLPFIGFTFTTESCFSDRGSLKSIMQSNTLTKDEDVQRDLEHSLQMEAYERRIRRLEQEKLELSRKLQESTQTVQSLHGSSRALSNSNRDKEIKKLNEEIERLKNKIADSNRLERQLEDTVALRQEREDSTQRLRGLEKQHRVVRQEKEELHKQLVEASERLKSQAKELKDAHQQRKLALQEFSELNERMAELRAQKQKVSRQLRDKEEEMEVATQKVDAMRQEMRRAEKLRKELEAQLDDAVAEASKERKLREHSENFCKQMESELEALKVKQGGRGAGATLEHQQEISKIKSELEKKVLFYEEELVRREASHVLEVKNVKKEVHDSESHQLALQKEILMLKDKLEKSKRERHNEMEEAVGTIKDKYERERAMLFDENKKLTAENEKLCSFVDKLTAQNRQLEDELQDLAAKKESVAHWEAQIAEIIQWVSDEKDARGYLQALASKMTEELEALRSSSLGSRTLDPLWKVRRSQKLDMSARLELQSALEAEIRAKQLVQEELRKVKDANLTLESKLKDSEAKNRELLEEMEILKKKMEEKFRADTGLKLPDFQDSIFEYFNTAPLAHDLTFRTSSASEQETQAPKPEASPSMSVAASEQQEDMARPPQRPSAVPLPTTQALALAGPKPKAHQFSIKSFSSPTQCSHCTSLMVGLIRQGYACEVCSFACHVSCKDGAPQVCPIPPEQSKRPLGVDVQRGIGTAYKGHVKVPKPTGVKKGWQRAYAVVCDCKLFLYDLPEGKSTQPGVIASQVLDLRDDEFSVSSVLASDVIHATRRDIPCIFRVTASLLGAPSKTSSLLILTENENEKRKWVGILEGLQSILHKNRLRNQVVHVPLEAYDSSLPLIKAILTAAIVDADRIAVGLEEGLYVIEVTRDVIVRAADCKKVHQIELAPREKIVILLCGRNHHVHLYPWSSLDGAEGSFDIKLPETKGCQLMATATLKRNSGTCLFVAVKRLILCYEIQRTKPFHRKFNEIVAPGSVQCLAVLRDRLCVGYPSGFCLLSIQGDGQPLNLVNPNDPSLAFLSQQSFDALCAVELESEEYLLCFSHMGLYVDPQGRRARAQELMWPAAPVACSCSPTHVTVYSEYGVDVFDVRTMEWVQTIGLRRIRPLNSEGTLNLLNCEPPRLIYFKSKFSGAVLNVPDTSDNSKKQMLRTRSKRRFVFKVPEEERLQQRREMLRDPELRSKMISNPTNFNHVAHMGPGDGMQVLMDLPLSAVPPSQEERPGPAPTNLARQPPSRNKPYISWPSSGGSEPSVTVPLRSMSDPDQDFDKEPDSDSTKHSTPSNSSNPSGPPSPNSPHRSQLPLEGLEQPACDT
Chain of Phosphatidylinositol 3-kinase catalytic subunit type 3 (Q8NEB9 whole entry): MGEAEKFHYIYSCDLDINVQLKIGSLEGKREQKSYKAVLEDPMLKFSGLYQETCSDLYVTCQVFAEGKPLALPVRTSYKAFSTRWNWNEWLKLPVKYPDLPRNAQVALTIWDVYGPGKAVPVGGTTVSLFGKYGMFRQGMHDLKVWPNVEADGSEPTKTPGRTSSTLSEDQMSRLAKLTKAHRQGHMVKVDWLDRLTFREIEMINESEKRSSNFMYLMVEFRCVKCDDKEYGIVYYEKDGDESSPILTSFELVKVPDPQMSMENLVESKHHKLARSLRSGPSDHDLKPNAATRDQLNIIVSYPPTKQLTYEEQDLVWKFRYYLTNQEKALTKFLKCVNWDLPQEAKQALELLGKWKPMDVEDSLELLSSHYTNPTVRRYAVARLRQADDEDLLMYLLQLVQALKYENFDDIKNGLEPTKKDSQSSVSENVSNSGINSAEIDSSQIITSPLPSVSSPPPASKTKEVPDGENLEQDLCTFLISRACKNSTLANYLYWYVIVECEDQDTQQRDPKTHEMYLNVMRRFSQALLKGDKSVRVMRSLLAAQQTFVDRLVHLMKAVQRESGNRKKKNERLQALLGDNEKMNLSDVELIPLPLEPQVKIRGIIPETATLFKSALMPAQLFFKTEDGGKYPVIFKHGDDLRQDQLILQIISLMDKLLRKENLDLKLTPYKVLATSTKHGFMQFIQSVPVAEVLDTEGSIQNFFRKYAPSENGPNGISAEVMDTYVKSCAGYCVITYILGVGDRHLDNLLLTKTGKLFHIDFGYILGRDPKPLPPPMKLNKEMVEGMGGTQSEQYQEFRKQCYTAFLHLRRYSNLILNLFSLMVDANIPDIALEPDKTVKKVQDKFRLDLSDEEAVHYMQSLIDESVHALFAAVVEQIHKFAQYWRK
Chain of Receptor-type tyrosine-protein kinase FLT3 (Homo sapiens) (P36888 whole entry): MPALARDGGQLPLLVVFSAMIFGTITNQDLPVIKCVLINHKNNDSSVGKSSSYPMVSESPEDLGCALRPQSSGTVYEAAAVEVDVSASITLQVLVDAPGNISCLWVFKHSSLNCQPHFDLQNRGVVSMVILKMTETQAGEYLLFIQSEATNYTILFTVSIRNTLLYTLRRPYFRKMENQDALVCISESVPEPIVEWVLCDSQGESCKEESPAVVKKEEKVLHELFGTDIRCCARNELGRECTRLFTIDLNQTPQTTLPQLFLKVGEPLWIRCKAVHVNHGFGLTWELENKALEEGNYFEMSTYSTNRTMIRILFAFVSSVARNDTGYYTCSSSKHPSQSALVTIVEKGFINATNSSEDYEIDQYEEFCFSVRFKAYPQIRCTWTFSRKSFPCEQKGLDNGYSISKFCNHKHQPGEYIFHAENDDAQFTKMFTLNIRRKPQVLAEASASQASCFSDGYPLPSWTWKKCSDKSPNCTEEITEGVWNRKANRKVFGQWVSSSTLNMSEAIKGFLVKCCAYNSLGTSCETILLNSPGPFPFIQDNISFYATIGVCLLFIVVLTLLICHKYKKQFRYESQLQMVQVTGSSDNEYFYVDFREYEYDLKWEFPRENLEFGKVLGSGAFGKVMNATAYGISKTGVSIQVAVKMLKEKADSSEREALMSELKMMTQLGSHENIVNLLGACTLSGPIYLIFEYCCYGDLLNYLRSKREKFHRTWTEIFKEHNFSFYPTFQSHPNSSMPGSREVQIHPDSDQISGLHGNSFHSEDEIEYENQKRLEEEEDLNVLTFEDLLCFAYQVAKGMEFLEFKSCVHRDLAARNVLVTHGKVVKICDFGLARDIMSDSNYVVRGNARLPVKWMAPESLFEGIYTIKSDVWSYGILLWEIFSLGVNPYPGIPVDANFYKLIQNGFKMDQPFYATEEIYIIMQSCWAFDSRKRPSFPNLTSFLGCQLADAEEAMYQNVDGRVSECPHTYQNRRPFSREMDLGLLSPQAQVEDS
Chain of Sodium-dependent noradrenaline transporter (P23975 whole entry): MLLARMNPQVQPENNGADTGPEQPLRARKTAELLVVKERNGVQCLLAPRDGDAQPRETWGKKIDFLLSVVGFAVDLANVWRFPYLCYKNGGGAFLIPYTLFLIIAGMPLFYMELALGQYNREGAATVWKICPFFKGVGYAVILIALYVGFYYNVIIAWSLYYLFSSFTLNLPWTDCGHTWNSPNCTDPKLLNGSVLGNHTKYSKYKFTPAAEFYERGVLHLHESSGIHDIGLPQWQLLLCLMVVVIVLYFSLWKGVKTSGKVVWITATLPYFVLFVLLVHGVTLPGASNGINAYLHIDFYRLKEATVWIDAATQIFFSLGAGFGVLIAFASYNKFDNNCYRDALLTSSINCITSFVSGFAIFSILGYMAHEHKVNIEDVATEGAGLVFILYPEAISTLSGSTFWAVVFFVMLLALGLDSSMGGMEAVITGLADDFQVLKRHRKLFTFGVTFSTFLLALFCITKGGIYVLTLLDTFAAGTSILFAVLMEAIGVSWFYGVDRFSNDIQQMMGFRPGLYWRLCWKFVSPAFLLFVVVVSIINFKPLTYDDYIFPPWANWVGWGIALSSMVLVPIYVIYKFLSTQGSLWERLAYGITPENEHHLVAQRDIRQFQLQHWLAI

% of control [1]: 107%
Structure (SMILES): CC(=O)Nc1cccc(-n2c(=O)n(C3CC3)c(=O)c3c(Nc4ccc(I)cc4F)n(C)c(=O)c(C)c32)c1

Structure (SMILES): COc1cc(Nc2nc(C)cc(-c3cnn4nc(OC)ccc34)n2)cc(C(F)(F)F)c1
% of control [2]: 74%

Structure (SMILES): CN(C)C/C=C/C(=O)Nc1ccc(C(=O)N2CCCC(Nc3ncc(Cl)c(-c4c[nH]c5ccccc45)n3)C2)cc1 (stereo unspecified)
% of control [3]: 96%

% of inhibition [4]: 8.59%
Structure (SMILES): CC[C@@H]1[C@H](F)C(=O)N[C@@H]1COc1nccc2cc(C(N)=O)c(OC)cc12 [ZIMLOVISERTIB]

Structure (SMILES): Nc1cnc(N2CCc3cc(S(=O)(=O)Nc4c(F)cc(Cl)cc4F)cc(N4CCCC4=O)c32)nc1 [TP-020n]
% of inhibition [5]: 18.2%
% of control [6]: 100%

% of inhibition [7]: 5%
Structure (SMILES): Cc1ccc(-c2ccc3c(ccc4sc5c(c43)NC[C@@H](C)NC5=O)n2)cn1

Structure (SMILES): C=CC(=O)Nc1cc(-n2c(=O)ccc3cnc4ccc(-c5ccc(NS(C)(=O)=O)cc5)cc4c32)ccc1C
% of control ([8]; at 1 µM): 100%
% of control ([8]; at 10 µM): 100%

Structure (SMILES): O[C@H]1CC[C@H](Nc2ncc3nc(Nc4c(F)cc(F)cc4F)n([C@H]4CCOC4)c3n2)CC1
% of control [9]: 100%

dTM [10]: -0.6 K
Structure (SMILES): CN(C(=O)c1cnn2cccnc12)c1cc2c(cc1N1CCOCC1)C(=O)N(C[C@@H](F)C(C)(C)O)C2
